Reference: patent publication US20050233413A1, “Neuroprotective polypeptides and methods of use” (priority 2002, published 2005)
Where two headings read alike, the source gives them in different places. Where no end group is shown, it is not given here. [ ]: non-standard residue; d: D form. pS = N[C@@H](COP(=O)(O)O)C(=O)O

Assays:
Type in all cases: cell-based
[1] = system: Aβ and V642I-APP
Description: (§1) F11 cells, the hybrid of a rat embryonic-day-13 primary cultured primary neuron and a mouse neuroblastoma cell, are one of the best models for primary cultured neurons as they carry representative characteristics of primary neurons, such as generation of action potentials without differentiation by NGF [22]. They have been used in various studies of is neuronal functions. Using these cells, the underlying mechanisms for cytotoxicity by V642I-APP have well been analyzed. Cytotoxicity by V642 mutants of APP has also been confirmed in multiple different systems. F11 cells were grown in Ham's F-12 (GibcoBRL, Gaithersburg, Md.) plus 18% fetal bovine serum (FBS; Hyclone, Logan, Utah) and antibiotics, as described previously. F11 cells (7×10^4 cell/well in a 6-well plate cultured in Ham's F-12 plus 18% FBS for 12-16 hr) were transfected with plasmids encoding FAD genes by lipofection [FAD cDNA 2 μg, LipofectAMINE 4 μl, PLUS reagent 8 μl (GibcoBRL)] in the absence of serum for 3 hr, and were incubated with Ham's F-12 plus 18% FBS for 2 hr. Then, culture media were changed to Ham's F-12 plus 10% FBS with or without HN peptides, and cells were cultured for an additional 67 hr. Seventy-two hr after transfection, cell mortality was measured by Trypan blue exclusion assay, performed as follows. Cells were suspended by pipetting gently, and 50 μl of 0.4% (finally 0.08%) Trypan blue solution (Sigma, St Louis, Mo.) was mixed with 200 μl of the cell suspension at room temperature. Stained cells were counted within 3 min after the mixture with Trypan blue solution.
(§2) The primary culture of mouse cortical neurons was performed in poly-L-lysine-coated 24-well plates or 96-well plates (Sumitomo Bakelite, Akita, Japan), in the absence of serum and the presence of N2 supplement, as described previously. The purity of neurons by this method was >98%. Prepared neurons (for neurons seeded in 96-well plates: 2.5×10^4 or 5×10^4 cells/well, 100 μl culture medium/well; for neurons seeded in 24-well plates: 1.25×10^5 cells/well, 250 μl culture medium/well) were preincubated with or without 10 μM (in case for the experiment with 10 μM HN) synthetic HN for 16 hr, and treated with 25 μM Aβ in the presence or absence of 10 μM HN for 72 hr, respectively. As primary neurons were vulnerable to transient dryness during medium exchange, we treated neurons with 25 μM Aβ as follows. First, a half volume (50 μl for neurons in 96-well plates; 125 μl for neurons in 24-well plates) of old medium was discarded. Then, the same volume (50 μl for neurons in 96-well plates; 125 μl for neurons in 24-well plates) of prewarned fresh medium containing 10 μM HN and 50 μM Aβ (Aβ was directly resolved) was added to the culture. The Aβ peptides used at 25 μM to induce neurotoxicity formed aggregation in the medium during the cell culture at 37° C. for 72 hr. as described. The WST-8 cell viability assay was performed, using Cell Counting Kit-8 (Wako Pure Chemical Industries, Osaka, Japan), as described previously.
(§3) Calcein assay was performed with Calcein-AM {3′,6′-di-(O-acetyl)-2′,7′-bis [N,N-bis(carboxymethyl)aminomethyl] fluorescein, tetraacetoxymethyl ester; Dojindo}, as described previously. These assays were simultaneously performed in the experiments with neurons seeded in 96-well plates, as follows. Seventy-two hours after Aβ treatment, cells were added with the mixture of 10 μl WST-8 solution and 1 μl of 600 μM Calcein-AM. After 2 hr incubation in a CO2 incubator at 37° C., WST-8 absorbance was measured as OD450. After exchanging the medium to PBS to lower the background, Calcein-specific fluorescence (ex=485 nm, em=535 nm) was observed by fluorescence microscopy or measured by a spectrofluorometer (Wallac1420 ARVOsx Multi Label Counter). […]

[2] = system: primary cultured neurons treated with 25 μM Aβ1-43; conditions: for Calcein fluorescence, percentage of neurons without treatment: 72 hours, means±S.D.
Method: (§4) In one assay, transfection with V642I-APP causes cell death in F11 neuronal hybrid cells. In the other, treatment with Aβ peptides causes cell death in primary cultured cortical neurons.
as §2
Calcein assay was performed with Calcein-AM {3′,6′-di-(O-acetyl)-2′,7′-bis [N,N-bis(carboxymethyl)aminomethyl] fluorescein, tetraacetoxymethyl ester; Dojindo}, as described previously. These assays were simultaneously performed in the experiments with neurons seeded in 96-well plates, as follows. Seventy-two hours after Aβ treatment, cells were added with the mixture of 10 μl WST-8 solution and 1 μl of 600 μM Calcein-AM. After 2 hr incubation in a CO2 incubator at 37° C., WST-8 absorbance was measured as OD450. After exchanging the medium to PBS to lower the background, Calcein-specific fluorescence (ex=485 nm, em=535 nm) was observed by fluorescence microscopy or measured by a spectrofluorometer (Wallac1420 ARVOsx Multi Label Counter). Most cell viability data using Calcein assay and WST-8 assay were obtained from neurons seeded at 5×10^4 cells/well in 96-well plates (high-density neurons) and confirmed by both assays with the cells seeded at 2.5×10^4 cells/well (low-density neurons).
Some experiments for Calcein assay were performed with neurons seeded in 24-well plates. […] In most experiments using primary neurons, four independent experiments were performed and the means? S. D. of the results were discussed.

[3] = system: F11 cells transfected with V642I-APP cDNA; assay: F11 cell death by V642I-APP transfection (Trypan blue exclusion); conditions: for cytotoxicity by V642I-APP in the presence of peptide (% dead cells of total cells): each peptide 10 μM, V642I-APP alone 53.7±1.2%, without transfection 9.0±1.4; for % dead cells of total cells: 72 hr after transfection
Description: as §4, §1

[4] = system: Aβ and four FAD genes (V642I-APP, NL-APP, M146L-PS1, and N141I-PS2); conditions: Table 5, marked *
Description: as §1, §2, §3

In the case of “EFLIVIKSMAPRGFSALLLLTSEIDLPVKRRA [EF-HNA]”, the Full protection ([1]; Table 5, marked **) is reported as “NE** (the corresponding peptide had no cytoprotective effect at 10 μM)” and the IC50 ([1]; Table 5, marked **) is reported as > 10 µM.
“EFLIVIKSMAPRGFSCLLLLTGEIDLPVKKKK [EF-HNG-KKK]” was tested, and the IC50 [2] was ~1 nM, the “concentration of full neuroprotection against Aβ1-43” value ([2]; 25 μM Aβ1-43) was 10 to 100 nM and the “suppression of Aβ neurotoxicity in the presence of 100 μM EFLIVIKS” value ([2]; 25 μM Aβ1-43, EF-HN and EF-HNG at 10 μM, WST-8 and Calcein assays) was “could not suppress Aβ neurotoxicity at all”. The IC50 [3] was ~0.1 nM, the “concentration of full cytoprotection / complete suppression against V642I-APP” value ([3]; F11 cells) was 10 nM and the “Full protection (minimal concentration that exerted full cytoprotection)” value ([1]; Table 5, marked **) was “˜10 nM”. The “potency relative to EF-HNG” value ([1]; times less potent than EF-HNG) was ~10 times.
For MAPRGFSCLLLLTEEIDLPVKRRA [(S14E)HN], the “cytotoxicity by V642I-APP in the presence of peptide (% dead cells of total cells)” value (from here on “cytotoxicity … (% dead cells of total cells)”) [3] was 45.0±1.9%.
With “MAPRGF(p-S)CLLLLTSEIDLPVKRRA (MAPRGF[pS]CLLLLTSEIDLPVKRRA) [P-S7 HN]” the “Calcein fluorescence, percentage of neurons without treatment” value ([2]; 25 μM Aβ1-43 + 10 pM peptide, Aβ alone 8.9 ± 0.8) was 9.0 ± 0.9%, the “Calcein fluorescence, percentage of neurons without treatment” value ([2]; 25 μM Aβ1-43 + 100 pM peptide) was 8.7 ± 0.8% and the “Calcein fluorescence, percentage of neurons without treatment” value ([2]; 25 μM Aβ1-43 + 1 nM peptide) was 8.8 ± 0.9%. The “Calcein fluorescence, percentage of neurons without treatment” value ([2]; 25 μM Aβ1-43 + 10 nM peptide) was 8.8 ± 0.6%, the “Calcein fluorescence, percentage of neurons without treatment” value ([2]; 25 μM Aβ1-43 + 100 nM peptide) was 10.5 ± 0.9% and the “Calcein fluorescence, percentage of neurons without treatment” value ([2]; 25 μM Aβ1-43 + 1 μM peptide) was 84.2 ± 6.8 %. The “Calcein fluorescence, percentage of neurons without treatment” value ([2]; 25 μM Aβ1-43 + 10 μM peptide) was 103.3 ± 2.8 %, the “% dead cells of total cells” value ([3]; V642I-APP + 10 pM peptide, means±S.D., V642I-APP alone 52.9 ± 1.1) was 53.7 ± 0.8% and the “% dead cells of total cells” value ([3]; V642I-APP + 100 pM peptide) was 53.1 ± 1.7%. For the same molecule, the “% dead cells of total cells” value ([3]; V642I-APP + 1 nM peptide) was 54.8 ± 1.6%, the “% dead cells of total cells” value ([3]; V642I-APP + 10 nM peptide) was 54.1 ± 1.4% and the “% dead cells of total cells” value ([3]; V642I-APP + 10 μM peptide) was 11.6 ± 1.1 %. For the same molecule, the “Full protection (minimal concentration that exerted full cytoprotection)” value [4] was “˜10 μM”.
For MAPRGFSCLLLLTWEIDLPVKRRA [(S14W)HN], the “cytotoxicity … (% dead cells of total cells)” value [3] was 54.5±4.2%.
With “MAPRGF(D-Ser)CLLLLTSEIDLPVKRRA [D-Ser7 HN]” the “Full protection (minimal concentration that exerted full cytoprotection)” value [4] was “˜10 μM”.
With MAPRGFSCLLLLTTEIDLPVKRRA [(S14T)HN] the “cytotoxicity … (% dead cells of total cells)” value [3] was 54.0±2.3%.
“(S14P)HN: HN derivative with Pro substitution at Ser14” was tested, and the “cytotoxicity … (% dead cells of total cells)” value [3] was 12.5±1.0%.
In the case of “PRGFACLLLLTGEIDLP [S7A HNG17, PRGFACLLLLTGEIDLP]”, the IC50 [2] is reported as ~1 nM, the “concentration of full neuroprotection against Aβ1-43” value ([2]; 25 μM Aβ1-43) is reported as “about 10 nM” and the “Full protection (minimal concentration that exerted full cytoprotection)” value ([1]; Table 5, marked **) is reported as “˜10 nM”.
MAPRGFSCLLLLTREIDLPVKRRA [(S14R)HN] was tested, and the “cytotoxicity … (% dead cells of total cells)” value [3] was 52.6±1.0%.
In the case of `CC[C@H](C)[C@H](NC(=O)[C@H](CCC(=O)O)NC(=O)[C@H](CO)NC(=O)[C@@H](NC(=O)[C@H](CC(C)C)NC(=O)[C@H](CC(C)C)NC(=O)[C@H](CC(C)C)NC(=O)[C@H](CC(C)C)NC(=O)[C@H](CS)NC(=O)[C@H](CO)NC(=O)[C@H](Cc1ccccc1)NC(=O)CNC(=O)[C@H](CCCNC(=N)N)NC(=O)[C@@H]1CCCN1C(=O)[C@H](C)NC(=O)[C@@H](N)CCSC)[C@@H](C)O)C(=O)N[C@@H](CC(=O)O)C(=O)N[C@@H](CC(C)C)C(=O)N1CCC[C@H]1C(=O)N[C@H](C(=O)N[C@@H](CCCCN)C(=O)N[C@@H](CCCNC(=N)N)C(=O)N[C@@H](CCCNC(=N)N)C(=O)N[C@@H](C)C(=O)O)C(C)C` [HN, reference compound], the “cytotoxicity … (% dead cells of total cells)” value [3] is reported as 11.0±0.1%.
For “MAPRGFSALLLLTSEIDLPVKRRA [HNA, reference compound]”, the “neuroprotective action against Aβ1-43 (in words)” value ([2]; 25 μM Aβ1-43, primary neurons) was “completely inactive”, the “cytoprotective action against V642I-APP (in words)” value ([3]; F11 cells) was “completely inactive” and the Full protection [4] was “NE* (the corresponding peptide had no cytoprotective effect at 10 μM)”. For the same molecule, the IC50 ([4]; read-out: IC50) was > 10 µM.
